In patent US20120035256A1, “Use of bipolar trans carotenoids as a pretreatment and in the treatment of peripheral vascular disease” (Diffusion Pharmaceuticals LLC, priority 2008, published 2012):

What was measured:
[1] = system: atherosclerotic plaque formation; conditions: rabbits; Gainer and Chisolm, Atherosclerosis 19: 135-138, 1974; cited from earlier work
[2] = system: focal cerebral ischemia (three vessel occlusion: both CCA and MCA); assay: Three vessel occlusion focal cerebral ischemic model; format: in vivo, rat
Source text: Preconditioning or pretreating a patient (mammal including human) with a bipolar trans carotenoid is advisable for the following patients: • a patient at risk of an ischemic event; • a patient at risk of forming an embolism or blood clot in the blood vessels, the brain, the heart, or the lungs. The embolism can be fat globules (a fat embolism), air bubbles (an air embolism), talc embolism (often following drug abuse), septic emboli (containing pus and bacteria), atherosclerotic emboli, or amniotic fluid; • a patient at risk of stroke including a patient diagnosed with a blocked carotid artery or having suffered a transient ischemic attack (TIA). In Example 2, TSC was administered intravenously to rats 24 hours before the ischemic injury to the brain occurred. Sufficient time passed between the administration of TSC and the subsequent event so that the TSC would have been cleared from the system. The TSC was dissolved in water, and given over a period of an hour in the following manner. First a 0.1 ml bolus injection was given, then a slow infusion (0.6 ml given over 60 minutes) was given, and finally another 0.1 ml bolus was given. […] The occlusions were removed after 2 hours, and the infarct volume (core plus penumbra) was measured 24 hours later. […]
Trans-sodium crocetinate (0.091 mg/kg total dosage) or vehicle was administered intravenously as follows 1) 0.1 ml injection 2) continuous infusion of TSC at a rate of 0.01 ml/min for the next 60 minutes, and 3) a final 0.1 ml injection of TSC 30 minutes after the cessation of continuous infusion. […] Infarction volumes were measured 24 hours after the ischemic event.
The effects of TSC on focal ischemic injury were examined using adult male Sprague-Dawley rats, each of which weighed between 330 and 370 g. […] Rectal temperature was monitored continuously and maintained at 37° C. with a heating lamp. […]
Focal ischemic was performed by clipping (Sundt AVM microclip No 1, Codman & Shurtleff, Inc., Raynham, Mass.) the MCA at a point distal to the origin of the lenticulostriate arteries. […] After 24 hours, infarct volume was calculated. […]

[3] = Rat transcutaneous oxygen (TCOM) study with 100% oxygen; format: in vivo; conditions: male Sprague-Dawley rats breathing 100% oxygen, TSC injected into femoral vein, 45 minutes recording, FIG. 1
Experimental: For the rat TCOM studies, male Sprague-Dawley rats were used which weighed between 350 and 400 grams each. TCOM electrodes are attached to humans on the chest, on the leg, or on the top of the foot. Using a TCOM apparatus (Radiometer), the electrodes were attached to the shaven skin in the areas of the chest, the abdomen, and the thigh of the rats. Pure oxygen was then administered to the rats. The most reproducible results came from the electrode attached near the rat's abdomen, on the left or right side.
The rats were anesthetized (to quiet them) using IP injections of 80 mg/kg ketamine and 10 mg/kg xylazine.
After the animals were asleep, the abdomen area of the rat was shaved and the TCOM electrode collar was attached to that area. Using Dow Corning high vacuum silicone grease between the electrode collar and the skin was helpful in maintaining a good seal on the rat's skin.
After attaching the TCOM probe, the transcutaneous oxygen tension was then monitored for 30 minutes while the rat breathed room air. The rat was then switched to 100% oxygen and TSC was injected into the femoral vein. The TCOM readings were then recorded for an additional 45 minutes.

Row | SMILES | Atherosclerotic plaque formation over time [1] | Infarct volume (actual, adjusted for swelling) ([2]; 3VO+TSC group, TSC 0.091 mg/kg total i.v. 24 hours before 120 min ischemia, measured 24 hours after the ischemic event, mean±SEM, p<0.01 vs 3VO-only or 3VO+Vehicle) | Reduction in infarct volume, preischemic treatment ([2]; TSC 0.091 mg/kg i.v. 24 hours before ischemic injury, occlusions removed after 2 hours, infarct volume measured 24 hours later) | Reduction in infarct volume, intraischemic treatment ([2]; intraischemic treatment with TSC done previously in this model) | TCOM reading (transcutaneous oxygen tension) [3]
1 | CC(/C=C/C=C(\C)C(=O)O)=C\C=C\C=C(C)\C=C\C=C(/C)C(=O)O [Crocetin] | reduction in atherosclerotic plaque formation |  |  |  | 
2 | CC(/C=C/C=C(\C)C(=O)[O-])=C\C=C\C=C(C)\C=C\C=C(/C)C(=O)[O-].[Na+].[Na+] [TSC, trans sodium crocetinate] |  | 57.7±16.2 mm3 | 65% | 58% | additional increase in the TCOM reading
